# Values joined by “and” are separate entries in the source; they are usually repeats but may differ in a detail not shown here. Equal entries are not always repeated. Structures can show the parent of a compound that is named as a salt.
# Key:
# human serum albumin [1] = molecular target: T1, human serum albumin (Homo sapiens, UniProt P02768); assay: 19F NMR spin-echo competition binding screening against HSA with spy molecule (3) and control molecule (2)
# Method: (§1) D2O was added to the solution (8% final concentration) for the lock signal.
# A dual coil {^19F}-{^1H} probe was used with the inner coil tuned to ^19F and the outer coil tuned to ^1H frequency. […] These signals are broad and therefore are not visible in the spectra of the reference and control molecule recorded with a spin-echo scheme. All the spectra were recorded with a weak Waltz-16 proton decoupling applied during the acquisition period. Typically 4-8 dummy scans were recorded for temperature equilibration. Carr-Purcell-Meibom-Gill schemes of different length and long 2τ interval were used before the acquisition period. Chemical shifts were referenced to trifluoroacetic acid.
# These techniques also provide the number of binding sites (n) for the reference molecule a parameter that is very important for the competition binding experiments.
# For screening, a total spin-echo period (2nτ) was selected for which the signal of the reference molecule is approaching zero.
# human serum albumin [2] = molecular target: T1, human serum albumin; assay: Isothermal titration calorimetry with HSA; type: binding; set-up: purchased Sigma A-3782
# Method: Isothermal titration calorimetry experiments were performed using an OMEGA titrating microcalorimeter from Microcal, Inc. (Northampton, Mass.). The titrating microcalorimeter consisted of a sample and reference cell held in an adiabatic enclosure. The reference cell was filled with PBS. […] Analyte at 0.8 mM in the same buffer was held in a 250 μL syringe. Thirty injections (8 μL each and 12 seconds/injection) of analyte were made by a computer controlled stepper motor into the sample cell held at 25° C. The syringe stir rate was 400 rpm. Heat adsorbed or released with each injection was measured by a thermoelectric device connected to a Microcal nanovolt preamplifier. Titration isotherms for the binding interactions were comprised of the differential heat flow for each injection. Heat of dilution obtained by injecting analyte into PBS was negligible. Binding isotherms were fit to a single binding site model (T. Wiseman et al., Anal. Biochem., 179, 131-137 (1989)) using an iterative nonlinear least-squares algorithm included with the instrument.
# PAK4 = molecular target: T2, PAK4 (Homo sapiens, UniProt O96013); assay: 19F NMR binding and competition binding screening and deconvolution against p21-activated kinase; conditions: 15 μM TFA, 1.5 μM protein
# T2 construct: GST (cleaved yes); made in house; host or cells: E. coli
# T2 sequence (O96013 321-572 limits assumed, species assumed): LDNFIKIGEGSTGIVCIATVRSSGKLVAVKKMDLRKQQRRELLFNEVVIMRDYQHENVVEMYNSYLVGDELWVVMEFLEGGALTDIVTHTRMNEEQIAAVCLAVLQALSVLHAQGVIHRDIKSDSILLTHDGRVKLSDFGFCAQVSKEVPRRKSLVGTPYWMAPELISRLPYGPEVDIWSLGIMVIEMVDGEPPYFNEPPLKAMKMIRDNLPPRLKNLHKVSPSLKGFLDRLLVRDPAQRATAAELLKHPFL
# Method: as §1
# The signal of the non-interacting molecule represents an internal reference that can be used for calibrating with a single experiment the changes in the signal of the spy molecule. […] It should be noted that some compounds in the screening may contain traces of TFA.
# T1 sequence (P02768 25-609): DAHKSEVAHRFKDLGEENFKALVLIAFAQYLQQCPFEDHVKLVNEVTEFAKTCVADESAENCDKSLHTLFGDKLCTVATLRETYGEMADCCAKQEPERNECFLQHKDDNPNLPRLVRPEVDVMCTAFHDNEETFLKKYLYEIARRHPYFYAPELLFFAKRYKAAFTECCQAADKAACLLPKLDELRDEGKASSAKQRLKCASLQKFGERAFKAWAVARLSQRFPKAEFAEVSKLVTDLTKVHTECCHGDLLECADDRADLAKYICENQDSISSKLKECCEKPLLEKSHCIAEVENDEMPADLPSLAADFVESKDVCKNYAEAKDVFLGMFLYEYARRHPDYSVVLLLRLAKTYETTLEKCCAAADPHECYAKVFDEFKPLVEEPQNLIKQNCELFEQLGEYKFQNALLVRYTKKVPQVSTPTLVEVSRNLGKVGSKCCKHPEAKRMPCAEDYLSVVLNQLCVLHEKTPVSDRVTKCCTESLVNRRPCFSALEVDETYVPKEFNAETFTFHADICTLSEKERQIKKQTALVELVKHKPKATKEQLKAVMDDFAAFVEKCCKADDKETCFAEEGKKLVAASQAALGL
smiles,measurement,setting,value
"Cc1ccc2[nH]cc(CC(N)C(=O)O)c2c1 (centres unmarked) [5-CH3 D,L Trp]",effect on the 19F signal of the spy molecule (3) (displacement from HSA),"human serum albumin [1]; 600 nM HSA, 50 μM (3), 25 μM (2), 50 μM 5-CH3 D,L Trp and sucrose, 25 μM (4)",do not alter the spectrum of the spy molecule
"FC(F)(F)c1nnc(N2CCNCC2)s1 [(2), 1-[5-(trifluoromethyl)1,3,4-thiadiazol-2-yl]piperazine]",evidence of binding to HSA by ITC,human serum albumin [2]; 8 μL injections of 800 μM into 30 μM HSA,did not find any evidence of binding to HSA
"O=C(O)c1cccc(F)c1O [(3), 2-hydroxy 3-fluorobenzoic acid]",Kd,"human serum albumin [2]; HSA in PBS + 2% DMSO, 25° C., single binding site model, read-out: ITC derived KD",41 ± 3.3 µM
same,Kd,"human serum albumin [1]; KD^app, apparent KD of (3), 50 μM, with 25 μM (4) and 0.6 μM HSA",327 µM and 300 µM
"O=C(O)C(F)(F)F [trifluoroacetic acid (TFA), trifluoroacetic acid]",interaction with the protein (19F spectra in absence and presence of protein),PAK4,non-interacting

# Source: patent US20040091937A1, “Use of fluorine NMR for high throughput screening” (priority 2002, published 2004)
